# From paper PMC7053198 (Theranostics, 2020)
# How the values were obtained:
# [1] = system: αvβ6-positive versus αvβ6-negative cell lines; format: cell-based
# Panc0403/PS1 xenografts = format: in vivo, mouse; conditions: n=4
# Capan-1 tumor xenografts = format: in vivo, mouse; conditions: n=3
# Capan-1 PDAC xenografts = conditions: mouse, in vivo, ip
# A375Ppuro xenografts = format: in vivo, mouse; conditions: after 21 days
# Capan-1 cells [2] = format: cell-based, human
# A375Ppuro cells [3] = system: A375Ppuro cells
# in vivo = conditions: female, CD1 Nu/Nu, mouse, ip, 20 ug/kg
# [4] = system: PANC354, PANC253 and PANC215 PDX PDAC cells; format: cell-based, human
# A375Pβ6 cells [5] = format: cell-based, human; conditions: 30 min at 4°C
# [6] = system: Panc0403/PS1 tumor xenografts; format: in vivo, mouse; conditions: n=4
# Panc1 cell line = format: cell-based; conditions: after 30 min
# [7] = mouse, in vivo, ip
# [8] = in vivo, ip
# A375Ppuro cells [9] = format: cell-based, human; conditions: 30 min at 4°C
# A375Pβ6 xenografts = conditions: mouse, in vivo, ip
# A375Pβ6 cells [10] = system: A375Pβ6 cells
# Capan-1 cells [11] = system: Capan-1 cells
smiles,measurement,setting,value
COc1cc2c(cc1OCCCCCOc1cc3c(cc1OC)C(=O)N1C=C(C)C[C@H]1[C@H](O)N3C(=O)OCc1ccc(NC(=O)[C@H](C)NC(=O)[C@@H](NC(=O)CCOCCOCCOCCOCCOCCOCCOCCOCCNC(=O)CCN3C(=O)CC(SC[C@H](NC(=O)[C@@H](NC(=O)[C@H](CCCNC(=N)N)NC(=O)[C@H](C)NC(=O)[C@@H](NC(=O)[C@H](CCCCN)NC(=O)[C@H](CCC(N)=O)NC(=O)[C@H](C)NC(=O)[C@H](CC(C)C)NC(=O)[C@@H](NC(=O)[C@H](CCC(N)=O)NC(=O)[C@H](CC(C)C)NC(=O)[C@H](CC(=O)O)NC(=O)CNC(=O)[C@H](CCCNC(=N)N)NC(=O)[C@H](CC(C)C)NC(=O)[C@H](CC(N)=O)NC(=O)[C@@H]4CCCN4C(=O)[C@@H](NC(=O)[C@H](C)NC(=O)[C@H](CC(N)=O)NC(=O)CCCC[C@@H]4SC[C@@H]5NC(=O)N[C@@H]54)C(C)C)C(C)C)C(C)C)[C@@H](C)O)C(=O)O)C3=O)C(C)C)cc1)N=C[C@@H]1CC(C)=CN1C2=O (stereo partly drawn) [SG3299],higher toxicity at equal dose than the non-targeted PDC SG3511,[1],up to 15 fold
same,more toxic for αvβ6-expressing versus αvβ6-negative PDAC cell lines,[1],up to 78 fold
same,reduction of xenograft tumor growth compared with PBS treatment,Panc0403/PS1 xenografts,75.8±6%
same,reduction of xenograft tumor growth compared with SG3511 therapy,Panc0403/PS1 xenografts,60.4±9.8%
same,increase in DNA damage (γH2AX) compared with PBS,Capan-1 tumor xenografts,5.9 fold
same,increase in apoptosis (cleaved-caspase 3) from PBS,Capan-1 tumor xenografts,5.8 fold
same,increased vimentin compared with PBS,Capan-1 tumor xenografts,4.6 fold
same,increased α-sma expression from PBS,Capan-1 tumor xenografts,1.9 fold
same,reduction in CK-positive epithelial cells compared with PBS,Capan-1 tumor xenografts,79.2±11.2%
same,reduction in E-cadherin-positive epithelial cells compared with PBS,Capan-1 tumor xenografts,85±8%
same,reduction in proliferation (Ki67 staining) compared with SG3511,Capan-1 tumor xenografts,66.2±15.7%
same,reduction in proliferation (Ki67 staining) compared with control,Capan-1 tumor xenografts,67.5±15%
same,effect on tumor growth,Capan-1 PDAC xenografts,significant growth inhibition
same,mice with tumors eliminated,Capan-1 PDAC xenografts,4 out of 5
same,reduction of tumor growth compared to PBS,Capan-1 PDAC xenografts,97.7±2%
same,reduction of tumor growth compared to SG3511,Capan-1 PDAC xenografts,96.1±3.4%
same,PDC αvβ6 Specificity Ratio,Panc0403 cells,13.22
same,IC50,Panc0403 cells; 72 h,3.44 ± 3.29 nM
same,reduction in tumor size compared with vehicle (PBS),A375Ppuro xenografts,34.8±4.6%
same,PDC αvβ6 Specificity Ratio,Panc1 cells,0.33
same,IC50,Panc1 cells; 72 h,176 ± 116 nM
same,binding and internalisation in Capan-1 cells,Capan-1 cells [2],strong binding and entry into the cytoplasm
same,PDC αvβ6 Specificity Ratio,A375Ppuro cells [3],3.30
same,IC50,A375Ppuro cells [3]; 72 h,30.6 ± 18.8 nM
same,level at time molar at 2 min,in vivo,0.011 ± 0.0043 µM
same,level at time molar at 5 min,in vivo,0.0095 ± 0.0043 µM
same,level at time molar at 0.25 h,in vivo,0.0192 ± 0.0049 µM
same,level at time molar at 1 h,in vivo,0.0279 ± 0.0042 µM
same,reduction of the number of spheres formed compared with control-treated spheres,[4],72±27%
same,binding to A375Pβ6 cells (MFI),A375Pβ6 cells [5],dose-dependent binding
same,increase in DNA damage (γH2AX) compared with PBS,[6],5.5 fold
same,increase in DNA damage (γH2AX) compared with SG3511,[6],2.9 fold
same,reduction of epithelial cell number (CK) compared with PBS,[6],44.2±18.1%
same,reduction of epithelial cell number (CK) compared with SG3511,[6],41.2±19.1%
same,reduction of epithelial cell number (E-cadherin) compared with PBS,[6],46±11%
same,reduction of epithelial cell number (E-cadherin) compared with SG3511,[6],32.1±34.6%
same,reduction of proliferation (Ki67) compared with PBS,[6],60±13.1%
same,reduction of proliferation (Ki67) compared with SG3511,[6],54.8±13.8%
same,reduction of β6 expression compared to PBS,[6],73.4±11%
same,reduction of β6 expression compared to SG3511,[6],61.1±16.1%
same,levels of internalised conjugate in αvβ6-negative Panc1,Panc1 cell line,no significant difference in the levels of internalised SG3299 or SG3511
same,detection in urine,[7],No SG3299 was detected in the urine
same,PDC αvβ6 Specificity Ratio,Colo357 cells,10.97
same,IC50,Colo357 cells; 72 h,2.24 ± 1.59 nM
same,"adverse effects (mouse weight, behaviour, gross histology of lung, intestine and stomach)",[8],no gross adverse effects
same,binding to A375Ppuro cells (MFI),A375Ppuro cells [9],failed to bind
same,reduced growth more than SG3511,A375Pβ6 xenografts,2.3 fold
same,reduction of tumor growth compared with PBS treatment,A375Pβ6 xenografts,79±7%
same,PDC αvβ6 Specificity Ratio,A375Pβ6 cells [10],15.02
same,more potent in A375Pβ6 cells than SG3511,A375Pβ6 cells [10],over 15 fold
same,more selective for A375Pβ6 cells than A375Ppuro cells,A375Pβ6 cells [10],5.7 fold
same,IC50,A375Pβ6 cells [10]; 72 h,5.37 ± 5.23 nM
same,PDC αvβ6 Specificity Ratio,Capan-1 cells [11],2.80
same,IC50,Capan-1 cells [11]; 72 h,4.19 ± 3.76 nM
